This is an account of results in US12378268B2, “Heterocyclic THR-β receptor agonist compound and preparation method and use therefor” (Hepagene Therapeutics (HK) Limited, priority 2019, dated 2025).

Read-outs that look alike come from different tables or passages of the source.

The target in one data set is T1, THR-α (Homo sapiens, UniProt P10827).
T1 construct: TR-a LBD, GST purchased from Thermo Fisher; purchased Thermo Fisher PV4762
The experiment in a line: Test of the binding ability of the compound to TRα (TRα LBD/RXRα, biotin-SRC2-2 co-activating peptide, 665/615 nm fluorescence ratio). Type of data set: biochemical. As to conditions: for Emax: activity relative to positive control. As to the method: (§1) 4.2 The activity percentage was calculated as follows: […]
(§2) RatioCompound: Average of the relative ratios of the compound wells of the embodiments
(§3) RatioPositive: Average of the relative ratios of all positive control wells.
(§4) RatioBlank: Average of the relative ratios of all negative control wells.
(§5) EC50 was calculated by fitting the relationship between activity (%) and compound logarithmic concentration with Graphpad 5.0 by a nonlinear regression method.
(§6) Y=Bottom+ (top-bottom)/(1+10^((LogEC50−X)*slope))
(§7) X: Compound logarithmic concentration Y: Percentage activity

The target in another data set is T2, THR-β (Homo sapiens, UniProt P10828).
T2 construct: TRB LBD, GST purchased from Thermo Fisher; purchased Thermo Fisher PV4762
T2 sequence (P10828 217-461 limits assumed, other chains not shown): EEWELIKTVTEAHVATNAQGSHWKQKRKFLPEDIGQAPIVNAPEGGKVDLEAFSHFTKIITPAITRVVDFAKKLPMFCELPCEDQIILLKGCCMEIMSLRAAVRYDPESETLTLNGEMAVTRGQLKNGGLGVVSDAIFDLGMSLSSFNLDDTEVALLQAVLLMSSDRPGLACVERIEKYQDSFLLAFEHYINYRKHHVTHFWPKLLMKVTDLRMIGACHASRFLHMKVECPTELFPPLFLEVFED
T2 sequence (P28702 whole entry partner, other chains not shown, the tested form may be a part): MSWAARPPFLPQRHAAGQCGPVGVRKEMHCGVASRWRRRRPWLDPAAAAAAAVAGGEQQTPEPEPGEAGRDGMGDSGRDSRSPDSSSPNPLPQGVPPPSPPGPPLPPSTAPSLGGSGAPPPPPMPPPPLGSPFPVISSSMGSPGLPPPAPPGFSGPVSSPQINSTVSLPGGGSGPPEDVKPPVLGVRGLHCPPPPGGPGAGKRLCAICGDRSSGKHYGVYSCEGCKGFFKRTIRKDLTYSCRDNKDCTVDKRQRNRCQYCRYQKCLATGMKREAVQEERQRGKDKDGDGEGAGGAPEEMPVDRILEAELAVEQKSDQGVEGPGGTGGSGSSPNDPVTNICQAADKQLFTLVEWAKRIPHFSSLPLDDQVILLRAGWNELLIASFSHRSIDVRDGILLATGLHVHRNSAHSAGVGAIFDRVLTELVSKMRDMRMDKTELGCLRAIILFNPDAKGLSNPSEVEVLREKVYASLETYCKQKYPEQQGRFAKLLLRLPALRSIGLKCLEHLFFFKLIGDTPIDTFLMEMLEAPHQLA
The experiment in a line: Test of the binding ability of the compound to TRβ (TRβ LBD/RXR, biotin-SRC2-2 co-activating peptide, 665/615 nm fluorescence ratio). As to conditions: for Emax: activity relative to positive control; for α/β selectivity (multiple): calculated after being standardized with T3. It counts as biochemical. As to the method:
1. Main experimental materials and instruments:
Biotin-SRC2-2 co-activating peptide purchased from Sangon Biotech (Shanghai) Co., Ltd.
TRB LBD, GST purchased from Thermo Fisher (product No. PV4762)
Europium-conjugated anti-glutathione antibody purchased from Cisbio (product No. 61GSTKLB)
Streptavidin-D2 purchased from Cisbio (product No. 610SADAB)
as §1, §2, §3, §4, §5, §6, §7

The nature of data set [1]: Drug metabolism experiment on prodrug in SD rats: concentration in liver compared with blood. Type of data set: in vivo. As to conditions: SD rats; for transformation of prodrug into active metabolite 1 in the liver: oral 3 mg/kg, in words; for Kp at 1 h / Kp at 4 h / Kp at 8 h / concentration at 1 h / concentration at 4 h / concentration at 8 h: male, rat, po, 3 mg/kg; for Kp at 1 h / Kp at 4 h / Kp at 8 h: read-out: Liver-to-blood ratio. As to the method:
(§8) Test 3: Drug metabolism experiment on prodrug in SD rats
(§9) In the experiment, […] of 12 male SD rats having similar body weights were selected and orally administered compound 9, compound 10, and the control drug VK2809 (the prodrug of MB07444, structured as shown below) at a dose of 3 mg/kg at a single time, respectively, and blood and liver samples were collected at different time points.
(§10) Solutions of compound 9/compound 10 and VK2809 with a final concentration of 0.6 mg/mL were respectively prepared, and the ratio between the solvents used for the preparation was PEG400: pure water =50:50 (v/v).
(§11) No randomization was performed. The weights of the animals were measured before administration, and healthy animals with similar body weights were selected for inclusion in the experiment. The oral dose was 3 mg/kg.
(§12) At least 0.2 mL of blood was collected from the tail vein or jugular vein, and heparin sodium was used as the anticoagulant.
(§13) After being collected, a blood sample was placed in a marked ice-water bath centrifuge tube, plasma was quickly separated by centrifugation under centrifugation conditions: 3500 rpm, 10 minutes, and 4° C., and the plasma was stored under −40° C. for testing.
After the liver sample was collected, its surface was washed with normal saline, dried with medical gauze, placed in a labeled small ziplock bag, and stored under −40° C. for testing.
(§14) Q TRAP6500 mass spectrometer with ESI source was used to perform negative ion MRM scanning. An LC-MS/MS analysis method was used to detect the contents of compound 9, compound 10 and its active metabolite 1, VK2809 and its active metabolite MB07444 in the plasma and liver. The metabolic kinetics data analysis software WinNonlin 7.0 was used to calculate the concentration data of plasma, and the non-compartmental model (NCA) method was used to calculate the pharmacokinetic parameters.
The parameters of concentration in the livers of the SD rats and a comparison with the concentration in plasma are shown in Table 3 below: […]

Data set [2] in a line: Drug metabolism experiment on prodrug in SD rats: plasma pharmacokinetic parameters. It counts as in vivo. The settings on record: for concentration of prodrug in plasma / transformation of prodrug into the active parent drug after oral administration: oral 3 mg/kg, in words. The protocol:
as §8, §9, §10, §11, §12
15 min, 30 min, 1 h, 2 h, 4 h, 6 h, 8 h, 24 h after administration.
as §13, §14

The mark [3] stands for this setting: plasma, oral 3 mg/kg Compound 9.
Where [4] appears, read: male, Sprague-Dawley (SD), rat, plasma, po, 3 mg/kg, oral 3 mg/kg Compound 10.
Setting [5] is: male, Sprague-Dawley (SD), rat, plasma, po, 3 mg/kg, oral 3 mg/kg VK2809.

T1 sequence (P10827 163-410 isoform P10827-2 limits assumed, other chains not shown): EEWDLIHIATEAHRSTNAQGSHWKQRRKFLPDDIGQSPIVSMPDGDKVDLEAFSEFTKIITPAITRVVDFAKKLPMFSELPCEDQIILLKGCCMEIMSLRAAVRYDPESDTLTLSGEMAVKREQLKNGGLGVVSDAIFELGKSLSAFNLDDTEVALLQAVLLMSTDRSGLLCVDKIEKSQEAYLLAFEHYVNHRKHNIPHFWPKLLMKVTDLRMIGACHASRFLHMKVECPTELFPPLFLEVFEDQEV
T1 sequence (P19793 whole entry partner, other chains not shown, the tested form may be a part): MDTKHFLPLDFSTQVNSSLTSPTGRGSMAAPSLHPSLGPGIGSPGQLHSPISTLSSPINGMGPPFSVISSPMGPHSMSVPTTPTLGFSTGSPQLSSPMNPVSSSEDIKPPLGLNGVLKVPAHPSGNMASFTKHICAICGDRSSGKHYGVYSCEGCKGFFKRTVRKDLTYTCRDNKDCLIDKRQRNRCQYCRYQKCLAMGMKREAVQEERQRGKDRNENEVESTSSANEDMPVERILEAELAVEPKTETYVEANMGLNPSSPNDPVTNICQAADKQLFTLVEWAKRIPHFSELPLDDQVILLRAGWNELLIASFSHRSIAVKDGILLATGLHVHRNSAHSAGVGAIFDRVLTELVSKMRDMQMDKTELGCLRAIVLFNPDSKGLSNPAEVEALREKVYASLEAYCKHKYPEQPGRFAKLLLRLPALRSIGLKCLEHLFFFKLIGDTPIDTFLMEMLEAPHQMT

For orientation: EC50 means the concentration needed to bring the measured effect to its halfway point. The term Emax denotes the greatest response seen or fitted, relative to the assay's reference. Turning to `Cc1cc(OCP(=O)(O)O)cc(C)c1Cc1ccc(O)c2ccccc12` [A, ((4-((4-hydroxynaphthyl-1-yl)methyl)-3,5-dimethylphenoxy)methyl) phosphoric acid, reference compound], at THR-α, the EC50 was found to be 280 nM and the Emax is 106%. On THR-β, the EC50 amounted to 109 nM, the Emax was found to be 100% and the “α/β selectivity (multiple)” value is listed as 4.7 multiple.

For `Cc1cc(OCP(=O)(O)O)cc(C)c1Cc1ccc(O)c2c1CCCC2` [B, reference compound], at THR-α, the EC50 came out at 230 nM and the Emax is 106%. At THR-β, the EC50 was 41 nM, the Emax is 111% and the “α/β selectivity (multiple)” value is listed as 11.4 multiple.

With `Cc1cc(OCP(=O)(O)O)cc(C)c1Cc1ccc(O)c2c1CCC2C` (stereo not drawn) [Compound 2], the values for the EC50 on THR-α and at THR-β were less than 200 nM and less than 100 nM, respectively. The Emax at THR-α was 98.3%; on THR-β, 104%.

As for `Cc1cc(OCP(=O)(O)O)cc(C)c1Cc1ccc(O)c2c1CCCC2(C)C` [Compound 3], on THR-α, the concentration for a half-maximal effect (EC50) was determined as 270 nM and the Emax was 105%. At THR-β, the EC50 came out at 104 nM, the Emax turned out to be 100% and the “α/β selectivity (multiple)” value is on record as 4.8 multiple.

Regarding `Cc1cc(OCP(=O)(O)O)cc(C)c1Cc1ccc(O)c2c1CCCCC2(C)C` [Compound 4, ((4-((4-hydroxy-5,5-dimethyl-6,7,8,9-tetrahydro-5H-benzo[7]annun-1-yl)methyl)-3,5-dimethylphenoxy)methyl) phosphoric acid], the EC50 on THR-α is greater than 10000 nM; at THR-β, greater than 1000 nM.

`Cc1cc(OCP(=O)(O)O)cc(C)c1Oc1ccc(O)c2c1CCC2(C)C` [Compound 5, ((4-((7-hydroxy-1,1-dimethyl-2,3-dihydro-1H-indene-4-position)oxy)-3,5-dimethylphenoxy)methyl) phosphoric acid]: on THR-α, the EC50 was less than 200 nM and the Emax was 102%. Besides, at THR-β, the EC50 was less than 100 nM and the Emax turned out to be 110%.

`CC1(C)CCc2c(Cc3c(Cl)cc(OCP(=O)(O)O)cc3Cl)ccc(O)c21` [Compound 6, ((3,5-dichloro-4-((7-hydroxy-1,1-dimethyl-2,3-dihydro-1H-indene-4-position)methyl)phenoxy)methyl) phosphoric acid]: at THR-α, the EC50 turned out to be 50 nM and the Emax amounted to 99.2%. In addition, on THR-β, the EC50 is 108 nM, the Emax was determined as 79% and the “α/β selectivity (multiple)” value was 0.7 multiple.

By Cmax is commonly meant the maximum level reached in the sampled fluid or tissue. `Cc1cc(OC[P@@](=O)(N[C@@H](C)C(=O)OC(C)C)Oc2ccccc2)cc(C)c1Cc1ccc(O)c2c1CCC2(C)C` [Compound 9]: in data set [1] (1 h, oral 3 mg/kg Compound 9), the “Ct Blood” value is “BLQ” and the “Ct Liver” value is “BLQ”. In data set [1] (4 h, oral 3 mg/kg Compound 9), the “Ct Blood” value is recorded as “BLQ” and the “Ct Liver” value was “BLQ”. Further, in data set [1] (8 h, oral 3 mg/kg Compound 9), the “Ct Blood” value is reported as “BLQ” and the “Ct Liver” value is “BLQ”. In data set [1] (24 h, oral 3 mg/kg Compound 9), the “Ct Blood” value is reported as “BLQ” and the “Ct Liver” value was “BLQ”. In data set [1], the “transformation of prodrug into active metabolite 1 in the liver” value was “rapidly metabolized in the liver to produce active metabolite compound 1”. Further, in data set [2], the “concentration of prodrug in plasma” value is “not high” and the “transformation of prodrug into the active parent drug after oral administration” value was “quickly transformed into the active parent drug compound 1”. Moreover, in data set [2] (setting [3]), the “AUC0−t” value is on record as “BLQ”, the “AUC0−∞” value was “BLQ” and the Cmax result is listed as “BLQ”.

The AUC(0-inf) is total exposure, with the tail of the curve extrapolated. The AUC(0-t) is exposure summed from dosing to a finite time, without extrapolation to infinity. As a reminder, the Tmax is the time at which the peak concentration occurs. In general, half-life refers to the time needed for the level to fall by half in the phase considered. With `Cc1cc(OC[P@@]2(=O)OCC[C@@H](c3cccc(Cl)c3)O2)cc(C)c1Cc1ccc(O)c2c1CCC2(C)C` [Compound 10], in data set [1] (24 h, oral 3 mg/kg Compound 10), the “Ct Blood” value is on record as “BLQ” and the “Ct Liver” value is “BLQ”. Besides, the “transformation of prodrug into active metabolite 1 in the liver” value in data set [1] is “much better than that of VK2809”. Further, the Kp at 1 h in data set [1] (Sprague-Dawley (SD), liver / plasma (heading prints blood), 1 h, oral 3 mg/kg Compound 10) came out at 16.2. Besides, the Kp at 4 h in data set [1] (Sprague-Dawley (SD), liver / plasma (heading prints blood), 4 h, oral 3 mg/kg Compound 10) was found to be 7.8. In addition, the Kp at 8 h in data set [1] (Sprague-Dawley (SD), liver / plasma (heading prints blood), 8 h, oral 3 mg/kg Compound 10) amounted to 4.7. For the same molecule, the concentration at 1 h in data set [1] (Sprague-Dawley (SD), liver, 1 h, oral 3 mg/kg Compound 10, read-out: Ct Liver) was 141 ng/g. In addition, in data set [1] (Sprague-Dawley (SD), liver, 4 h, oral 3 mg/kg Compound 10, read-out: Ct Liver), the concentration at 4 h came out at 273 ng/g. Also, in data set [1] (Sprague-Dawley (SD), liver, 8 h, oral 3 mg/kg Compound 10, read-out: Ct Liver), the concentration at 8 h amounted to 46.5 ng/g. For the same molecule, the concentration at 1 h in data set [1] (Sprague-Dawley (SD), plasma (heading prints blood), 1 h, oral 3 mg/kg Compound 10, read-out: Ct Blood) worked out at 8.8 ng/g. Moreover, the concentration at 4 h in data set [1] (Sprague-Dawley (SD), plasma (heading prints blood), 4 h, oral 3 mg/kg Compound 10, read-out: Ct Blood) amounted to 7.9 ng/g. Also, in data set [1] (Sprague-Dawley (SD), plasma (heading prints blood), 8 h, oral 3 mg/kg Compound 10, read-out: Ct Blood), the concentration at 8 h was 10.3 ng/g. Moreover, in data set [2] (setting [4]), the AUC(0-inf) amounted to 89.3 ng·h/mL, the AUC(0-t) was determined as 69.2 ng·h/mL, the Tmax turned out to be 4.67 h and the half-life was 1.73 h. Besides, the Cmax in data set [2] (male, Sprague-Dawley (SD), rat, plasma, po, 3 mg/kg, plasma, oral 3 mg/kg Compound 10, read-out: Cmax) amounted to 19.9 ng/mL. Also, in data set [2], the “concentration of prodrug in plasma” value is on record as “not high” and the “transformation of prodrug into the active parent drug after oral administration” value is given as “quickly transformed into the active parent drug compound 1”. Besides, in data set [2] (plasma, oral 3 mg/kg Compound 10), the Kel turned out to be 0.428 h⁻¹.

As to `Cc1cc(OC[P@@]2(=O)OCC[C@@H](c3cccc(Cl)c3)O2)cc(C)c1Cc1ccc(O)c(C(C)C)c1` [VK2809, reference compound], in data set [1] (24 h, oral 3 mg/kg VK-2809), the “Ct Blood” value is given as “BLQ” and the “Ct Liver” value is “BLQ”. The concentration at 1 h in data set [1] (Sprague-Dawley, liver, 1 h, oral 3 mg/kg VK-2809, read-out: Ct Liver) worked out at 39 ng/g. In data set [1] (Sprague-Dawley, liver, 4 h, oral 3 mg/kg VK-2809, read-out: Ct Liver), the concentration at 4 h worked out at 30 ng/g. The concentration at 8 h in data set [1] (Sprague-Dawley, liver, 8 h, oral 3 mg/kg VK-2809, read-out: Ct Liver) was 17 ng/g. In addition, the Kp at 1 h in data set [1] (Sprague-Dawley, liver/plasma, 1 h, oral 3 mg/kg VK-2809) was 8.6. Besides, in data set [1] (Sprague-Dawley, liver/plasma, 4 h, oral 3 mg/kg VK-2809), the Kp at 4 h is 5.2. The Kp at 8 h in data set [1] (Sprague-Dawley, liver/plasma, 8 h, oral 3 mg/kg VK-2809) is 4. Also, the concentration at 1 h in data set [1] (Sprague-Dawley, plasma, 1 h, oral 3 mg/kg VK-2809, read-out: Ct Blood) was 2.9 ng/g. Moreover, the concentration at 4 h in data set [1] (Sprague-Dawley, plasma, 4 h, oral 3 mg/kg VK-2809, read-out: Ct Blood) was 4.8 ng/g. The concentration at 8 h in data set [1] (Sprague-Dawley, plasma, 8 h, oral 3 mg/kg VK-2809, read-out: Ct Blood) came out at 5.6 ng/g. For the same molecule, in data set [2] (setting [5]), the AUC(0-inf) is 83.3 ng·h/mL, the AUC(0-t) came to 43.6 ng·h/mL, the Tmax is 6 h and the half-life was 4.81 h. Besides, the Cmax in data set [2] (male, Sprague-Dawley (SD), rat, plasma, po, 3 mg/kg, plasma, oral 3 mg/kg VK2809, read-out: Cmax) worked out at 9.9 ng/mL. In data set [2] (plasma, oral 3 mg/kg VK2809), the Kel stood at 0.273 h⁻¹.
